Measured values taken from patent EP3269373A1, “LOW-DOSED ORAL DOSAGE FORM OF AN AKR1C3 INHIBITOR FOR TREATMENT OF DISEASES” (Bayer Pharma Aktiengesellschaft, priority 2016, dated 2018).

Tests used:
[1] = Embryonic (embryo-fetal) development study in rabbits; type: in vivo; settings: for NOAEL: female, po, pregnant rabbits, oral gavage once daily, Day 6 to Day 19 of gestation
Experimental: However, the incidence of some foetal structural variations (= mild foetal structural abnormalities) was increased at the mid dose of 20 mg/kg and higher. […] Table 2: Preclinical safety margins
The control received the vehicle in the same manner. All F0-females were sacrificed on Day 29 of gestation and the following parameters were recorded after removal and examination of the ovaries and the uteri: Number of corpora lutea, number and state of implantation sites (i.e, live foetus, early and late interauterine deaths, dead fetuses). […] Dead fetuses were classified as those which appeared to have died shortly before necropsy. Live foetuses were euthanised by an intraperitoneal injection of sodium pentobarbitone. Individual foetal and placental weights were recorded and foetuses were examined for external abnormalities and sexed by external observation. All fetuses in each litter were examined for visceral abnormalities by microdissection, eviscerated and the carcasses processed and Alizarin Red S stained for skeletal examination. The intact heads of approximately one half of the fetuses in each litter were removed after the fetuses were killed and were processed in Bouin's fluid. The heads were then examined by the Wilson sectioning method. Foetal abnormalities were classified as malformations (rare and/or potentially lethal defects) and variations (commonly occurring non-lethal abnormalities). […] These variations were related to sternebra. […] This finding was not present in the background data. […] Thus, in summary, the NOAEL for maternal toxicity is considered to be 70 mg/kg. The NOAEL for developmental toxicity is regarded as 5 mg/kg due to the occurrence of foetal findings classified as variations at the dose of 20 mg/kg and higher.

[2] = target: T1, AKR1C3 (Homo sapiens, UniProt P42330); settings: as disclosed in WO 2013045407; cited from earlier work
T1 sequence (P42330 1-323): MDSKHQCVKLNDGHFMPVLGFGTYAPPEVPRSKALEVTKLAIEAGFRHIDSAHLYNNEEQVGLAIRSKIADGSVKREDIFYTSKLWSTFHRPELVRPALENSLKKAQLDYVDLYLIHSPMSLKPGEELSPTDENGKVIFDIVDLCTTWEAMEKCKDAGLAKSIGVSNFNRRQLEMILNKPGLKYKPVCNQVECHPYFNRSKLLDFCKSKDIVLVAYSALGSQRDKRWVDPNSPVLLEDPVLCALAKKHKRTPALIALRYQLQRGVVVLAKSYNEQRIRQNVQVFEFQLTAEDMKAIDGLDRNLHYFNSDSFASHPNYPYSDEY

[3] = Risk assessment on reproductive and developmental toxicities (exposure ratios animal:human) combined with clinical studies
[4] = Multiple dose study Part B in healthy premenopausal tubal-ligated women, 28 days (safety, plasma bilirubin); type: in vivo; settings: for Plasma bilirubin concentrations above the upper limit of normal (subjects): tablets
[5] = Single dose study in healthy postmenopausal women (safety, plasma bilirubin); type: in vivo
Experimental: Single center, randomized, placebo-controlled, double-blind and parallel group study. For the 30 mg group only, a one sequence cross-over design was applied to estimate the relative bioavailability of a liquid versus a solid formulation.
In this study the AKR1C3 inhibitor was administered as a single oral dose. Eight volunteers per treatment group were included. Two volunteers per treatment group were allocated to placebo in a randomized, double-blind fashion in order to assess non-drug related factors in the safety evaluation. To ensure that 8 subjects were treated, during the pre-dose phase at least 1 backup subject had to undergo all necessary measurements to compensate for the risk that a person had to be excluded immediately before dosing due to safety concerns.
Forty-six (46, 76.7%) out of 60 treated subjects were treated with the AKR1C3 inhibitor (6 subjects per group at dose levels 1 mg, 3 mg, 10 mg, 30 mg, 120 mg, 240 mg; 5 subjects per group at 60 mg and 90 mg) and 14 subjects (23.3%) received placebo (2 subjects each in the 1 mg, 3 mg, 30 mg, 60 mg, 120 mg and 240 mg groups, and 1 subject each in the 10 mg and 90 mg groups). All 60 treated subjects (100%) completed the study and were included in the statistical analyses of safety (SAF: N=60). One out of 60 treated subjects was not valid for the analysis of pharmacodynamics due to vomiting before two times tmax (PDS: N=59). This same subject was also excluded from the PK analysis of the 46 verum-treated subjects, and all 14 placebo-treated subjects were not valid for the analysis of PK (PKS: N=45).
Bilirubin was measured employing a standard laboratory kit.

[6] = Embryonic (embryo-fetal) development study in rats; type: in vivo; settings: for NOAEL: female, rat, in vivo, po, pregnant rats, oral gavage once daily, Day 6 to Day 17 of gestation
Experimental: The NOAEL for developmental toxicity in rats is consequently the mid dose of 17 mg/kg.
The control received the vehicle in the same manner. All F0-females were sacrificed on Day 21 of gestation and the following parameters were recorded after removal and examination of the ovaries and the uteri: Number of corpora lutea, number and state of implantation sites (i.e, live foetus, early and late interauterine deaths, dead fetuses). […] Dead fetuses were classified as those which appeared to have died shortly before necropsy. Live foetuses were euthanised by a subcutaneous injection of sodium pentobarbitone. Individual foetal and placental weights were recorded and foetuses were examined for external abnormalities and sexed by external observation. Afterwards, approximately one half of the foetuses in each litter were examined for visceral abnormalities by microdissection. They were then eviscerated and the carcasses processed and Alizarin Red S stained for skeletal examination. The remaining foetuses were fixed in Bouin's fluid and examined for visceral abnormalities by the Wilson sectioning method. Foetal abnormalities were classified as malformations (rare and/or potentially lethal defects) and variations (commonly occurring non-lethal abnormalities).

[7] = Multiple dose study Part A in healthy postmenopausal women, 14 days (safety, plasma bilirubin); settings: for Plasma bilirubin concentrations above the upper limit of normal (subjects): tablets
[8] = cited from earlier work

CN(CCC(=O)O)C(=O)c1ccc2c(c1)CC[C@@H]1[C@@H]2CC[C@]2(C)C(c3cncc(F)c3)=CC[C@@H]12 [AKR1C3 inhibitor, N-{[17-(5-Fluoropyridin-3-yl)estra-1,3,5(10),16-tetraen-3-yl]carbonyl}-N-methyl-β-alanine]
NOAEL ([1]; rabbit, in vivo, doses 0, 5, 20, 70 mg/kg, read-out: NOAEL for dev. toxicity): 5 mg/kg | NOAEL ([1]; rabbit, in vivo, read-out: NOAEL for maternal toxicity): 70 mg/kg | occurrence of sternebra with increased ossification ([1]; rabbit, in vivo, 5 mg/kg): very low incidence | incidence of some foetal structural variations ([1]; rabbit, in vivo, 20 mg/kg): increased | incidence of a discoloured thymus in fetuses ([1]; rabbit, in vivo, 70 mg/kg): slightly higher incidence | higher systemic exposure (AUCunbound) at NOAEL than expected clinical exposure ([1]; rabbits at 5 mg/kg vs once daily 3 mg/day in humans): ~17 fold | higher systemic exposure (AUCunbound) at NOAEL than expected clinical exposure ([1]; rabbits at 5 mg/kg vs twice daily 60 mg/day in humans): approximately 0.3 fold | AKR1C3 inhibition [2]: potent | dose of decreased concern for reproductive or developmental toxicity in humans [3]: ≤ 3 mg daily dose | dose of increased concern for reproductive or developmental toxicity in humans [3]: > 15 mg daily dose | Plasma bilirubin concentrations above the upper limit of normal (subjects) ([4]; 60 mg once daily over 28 days): 1 of 9 | changes in plasma bilirubin ([4]; 60 mg once daily, premenopausal women, 4 weeks of treatment): increases in plasma bilirubin were observed in a small fraction of subjects | Plasma bilirubin concentrations above the upper limit of normal (subjects) ([4]; 60 mg twice daily over 28 days): 2 of 9 | changes in plasma bilirubin ([4]; 60 mg twice daily, 28 days): increase in plasma bilirubin was observed in a significant fraction of subjects | drug-related TEAE headache ([5]; female, human, in vivo): 21.7% | drug-related TEAE nausea ([5]; female, human, in vivo): 15.2% | drug-related TEAE vomiting ([5]; female, human, in vivo): 13.0% | Serious treatment-emergent adverse events (TEAEs) ([5]; in vivo): not reported | indication for hemolysis ([5]; in vivo): no indication for hemolysis | signs of drug-induced liver injury (DILI) ([5]; in vivo): no signs of drug-induced liver injury (DILI) have been detected | maximum tolerated dose ([5]; single dose): 120 mg | well tolerated up to a single dose ([5]; single oral dose): ≤ 120 mg | incidence of fetal visceral and skeletal variations ([6]; 60 mg/kg, compared to the concurrent or historical control): higher incidence | NOAEL ([6]; doses 0, 5, 17, 60 mg/kg, read-out: NOAEL for dev. toxicity): 17 mg/kg | NOAEL ([6]; read-out: NOAEL for maternal toxicity): 60 mg/kg | incidence of malformations ([6]; high dose 60 mg/kg, from eight dams, out of a total of 198 foetuses (control 1 foetus out of 211)): 12 foetuses | higher systemic exposure (AUCunbound) at NOAEL than expected clinical exposure ([6]; rats at 17 mg/kg vs once daily 3 mg/day in humans): ~122 fold | higher systemic exposure (AUCunbound) at NOAEL than expected clinical exposure ([6]; rats at 17 mg/kg vs once daily 30 mg/day in humans): ~15 fold | higher systemic exposure (AUCunbound) at NOAEL than expected clinical exposure ([6]; rats at 17 mg/kg vs twice daily 60 mg/day in humans): approximately 2 fold | Plasma bilirubin concentrations above the upper limit of normal (subjects) ([7]; 60 mg twice daily over 14 days): 5 of 7 | changes in plasma bilirubin ([7]; 60 mg twice daily, 14 days): increase in plasma bilirubin was observed in a significant fraction of subjects | Plasma bilirubin concentrations above the upper limit of normal (subjects) ([7]; 90 mg once daily over 14 days): 1 of 7 | changes in plasma bilirubin ([7]; 90 mg once daily, postmenopausal women, 2 weeks of treatment): increases in plasma bilirubin were observed in a small fraction of subjects | well tolerated up to a dose ([7]; multiple dosing, women): ≤ 60 mg twice daily | changes in plasma bilirubin ([7]; up to 30 mg once daily / 70 kg body weight, single and repeat dosing up to 14 days): no changes in plasma bilirubin were observed | lesion load ([8]; 0.2 mg/kg and 0.8 mg/kg, given daily, compared to the vehicle group): reduction in lesion load | lesions on the bladder and on/in the uterus ([8]; 30 mg/kg daily, compared with the vehicle group (WO 2013045407)): hardly any lesions could be found
